Here are results for eight molecules from PubChem BioAssay (NCI).

Each structure is given as a SMILES string. Values joined by “and” are separate entries in the source; they are usually repeats but may differ in a detail not shown here. Identical values can stand only once.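 Following 48 hours of exposure in 96-well plates, responses at five concentrations were used to interpolate endpoints linearly. Abbreviation: GI50, concentration required for 50% inhibition of growth. TGI denotes the concentration required for complete inhibition of growth.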

Among the test systems are SK-MEL-28 melanoma; SNB-19 CNS; OVCAR-5 ovarian; MALME-3M melanoma; MCF7 breast; U251 CNS; MDA-MB-231 breast; SK-MEL-5 melanoma; COLO 205 colon; HT29 colon.
What all share (test): inhibition of tumour cell growth, NCI panel, 48 h

As to `COc1cc(/C=C/C(=O)c2c(C)n([O-])c3cc(C)c(C)cc3[n+]2=O)cc(OC)c1OC`, the GI50 in the assay with SK-MEL-28 melanoma was 19 µM; in the assay on SNB-19 CNS it was 16.9 µM; in the assay with OVCAR-5 ovarian, 17.6 µM; in the assay with MALME-3M melanoma it was 19.6 µM; in the assay with MCF7 breast, 9.62 µM; with U251 CNS, 12 µM. The GI50 with MDA-MB-231 breast is 17 µM; with SK-MEL-5 melanoma, 13.9 µM; in the assay with COLO 205 colon, 20.7 µM; in the assay with HT29 colon, 18.6 µM. In addition, the TGI in the assay on SK-MEL-28 melanoma was found to be 46.7 µM; with SNB-19 CNS it was 39.9 µM; with OVCAR-5 ovarian, 47.1 µM; in the assay on MALME-3M melanoma, 41.1 µM; in the assay with MCF7 breast, 25.1 µM; with U251 CNS, 25.8 µM. Also, the TGI was 44.7 µM in the assay with MDA-MB-231 breast, 34 µM in the assay with SK-MEL-5 melanoma, 67.4 µM with COLO 205 colon and 34.7 µM in the assay with HT29 colon.

Take `COC(=O)Nc1nc2c(OC)c(OC)c(OC)cc2[nH]1`: the GI50 in the assay with SK-MEL-28 melanoma was 52.4 µM; in the assay on SNB-19 CNS, 45.7 µM; in the assay on OVCAR-5 ovarian, 49.6 µM; in the assay on MALME-3M melanoma, 16.4 µM; in the assay on MCF7 breast, 9.38 µM; in the assay with U251 CNS, 21.1 µM. In addition, the GI50 is 18.7 µM in the assay with MDA-MB-231 breast, 9.34 µM with SK-MEL-5 melanoma, 7.33 µM in the assay with COLO 205 colon and 4.63 µM in the assay with HT29 colon. Further, the TGI in the assay with SK-MEL-28 melanoma, with SNB-19 CNS, in the assay with OVCAR-5 ovarian, with MALME-3M melanoma, in the assay on MCF7 breast and in the assay with U251 CNS was > 100 µM throughout. The TGI was > 100 µM in the assay with MDA-MB-231 breast, > 100 µM in the assay on SK-MEL-5 melanoma, 64.7 µM in the assay with COLO 205 colon and > 97.1 µM with HT29 colon.

Regarding `CCOC(=O)Nc1nc2c(F)c(F)c(F)cc2s1`, the GI50 was > 100 µM in the assay with SK-MEL-28 melanoma; > 100 µM in the assay with SNB-19 CNS; > 100 µM in the assay on OVCAR-5 ovarian; > 100 µM in the assay with MALME-3M melanoma; > 100 µM in the assay on MCF7 breast; 36.7 µM with U251 CNS. Further, the GI50 with MDA-MB-231 breast is 36.2 µM; with SK-MEL-5 melanoma, > 100 µM; in the assay with COLO 205 colon, > 100 µM; with HT29 colon it was > 100 µM. Moreover, the TGI in the assay on SK-MEL-28 melanoma, in the assay on SNB-19 CNS, in the assay with OVCAR-5 ovarian, in the assay with MALME-3M melanoma, with MCF7 breast and with U251 CNS was > 100 µM each time. Moreover, the TGI with MDA-MB-231 breast, in the assay with SK-MEL-5 melanoma, with COLO 205 colon and with HT29 colon was > 100 µM throughout.

For the molecule `BrP(NC1CCCCCC1)(c1ccccc1)(c1ccccc1)c1ccccc1`, the TGI in the assay on SK-MEL-28 melanoma worked out at 6.62 µM; with SNB-19 CNS, 16.8 µM; with OVCAR-5 ovarian, 52.7 µM; with MALME-3M melanoma, 12.5 µM; in the assay on MCF7 breast it was 6.26 µM; in the assay with U251 CNS, 13.4 µM. In addition, the TGI is 16 µM with MDA-MB-231 breast, 3.18 µM in the assay on SK-MEL-5 melanoma, 5.4 µM in the assay with COLO 205 colon and 4.66 µM with HT29 colon.

For the molecule `CC1=C[C@H]2c3c(c(O)c(O)c4oc5cc(O)cc(O)c5c(=O)c34)[C@H](c3cc(O)c(O)c4oc5cc(O)cc(O)c5c(=O)c34)[C@H]2C(C)(C)C1`, the GI50 is 1.5 µM and 1.76 µM in the assay with SK-MEL-28 melanoma; 1.33 µM and 1.3 µM in the assay with SNB-19 CNS; 2.71 µM and 2.1 µM with OVCAR-5 ovarian; 1.73 µM and 1.98 µM in the assay with MALME-3M melanoma; 0.725 µM with MCF7 breast; 0.789 µM and 1.08 µM with U251 CNS. Besides, the GI50 was 1.46 µM and 1.83 µM in the assay on MDA-MB-231 breast; 1.53 µM and 1.43 µM in the assay with SK-MEL-5 melanoma; 2.65 µM in the assay on COLO 205 colon; 1.49 µM and 2.96 µM in the assay with HT29 colon. In addition, the TGI with SK-MEL-28 melanoma is 3.44 µM and 4.28 µM; in the assay on SNB-19 CNS, 3.31 µM and 4.93 µM; in the assay on OVCAR-5 ovarian, 10.5 µM and 6.58 µM; with MALME-3M melanoma it was 4.1 µM and 5.31 µM; in the assay with MCF7 breast it was 3.88 µM; in the assay with U251 CNS, 3.26 µM and 17 µM. For the same molecule, the TGI in the assay with MDA-MB-231 breast was 4.01 µM and 5.62 µM; in the assay with SK-MEL-5 melanoma, 2.89 µM and 2.84 µM; with COLO 205 colon it was 7.33 µM; in the assay with HT29 colon, 5.74 µM and 12 µM.

On to `Cc1cc(C)cc(Nc2nccc(-c3c(-c4ccc(F)cc4)ncn3C3CCNCC3)n2)c1`, for which the GI50 in the assay with SK-MEL-28 melanoma was 1.78 µM; in the assay with SNB-19 CNS it was 1.68 µM; with OVCAR-5 ovarian, 1.67 µM; in the assay on MALME-3M melanoma, 1.61 µM; in the assay on MCF7 breast, 0.566 µM; with U251 CNS it was 1.65 µM. For the same molecule, the GI50 is 1.5 µM with MDA-MB-231 breast, 1.75 µM in the assay on SK-MEL-5 melanoma, 1.41 µM with COLO 205 colon and 0.78 µM in the assay with HT29 colon. The TGI with SK-MEL-28 melanoma turned out to be 3.26 µM; in the assay with SNB-19 CNS, 3.71 µM; in the assay with OVCAR-5 ovarian, 3.98 µM; in the assay on MALME-3M melanoma, 3.39 µM; with MCF7 breast, 2.09 µM; in the assay with U251 CNS, 3.25 µM. Also, the TGI was determined as 3.09 µM with MDA-MB-231 breast, 3.31 µM with SK-MEL-5 melanoma, 3.21 µM in the assay on COLO 205 colon and 2.43 µM in the assay with HT29 colon.

Consider `Cc1sc2nc(-c3ccccn3)c(/C=N/N=C(N)N)n2c1C`, for which the GI50 was 4 µM with SK-MEL-28 melanoma; 7.52 µM with SNB-19 CNS; 7.67 µM in the assay on OVCAR-5 ovarian; 4.53 µM in the assay on MALME-3M melanoma; 6.54 µM in the assay with MCF7 breast; 9.3 µM with U251 CNS. Moreover, the GI50 is 3.3 µM in the assay on MDA-MB-231 breast, 3.58 µM in the assay with SK-MEL-5 melanoma, 4.97 µM with COLO 205 colon and 5.68 µM in the assay with HT29 colon. In addition, the TGI stood at 9.13 µM in the assay on SK-MEL-28 melanoma; 19.5 µM in the assay with SNB-19 CNS; 16.2 µM with OVCAR-5 ovarian; 9.81 µM in the assay on MALME-3M melanoma; 34 µM with MCF7 breast; 21 µM with U251 CNS. Also, the TGI with MDA-MB-231 breast is 6.94 µM; with SK-MEL-5 melanoma, 8.13 µM; in the assay on COLO 205 colon it was 11.4 µM; in the assay with HT29 colon, > 17.4 µM.

On to `Cn1c2ccccc2c2cc(-c3ccccc3)c3c(c21)C(=O)C=CC3=O`, for which the TGI in the assay on SK-MEL-28 melanoma is 40.2 µM; in the assay with SNB-19 CNS, > 100 µM; in the assay with OVCAR-5 ovarian, 35.2 µM; in the assay with MALME-3M melanoma, 40.2 µM; with MCF7 breast it was 24.7 µM; with U251 CNS, 39.4 µM. Further, the TGI in the assay on MDA-MB-231 breast was 47.4 µM; with SK-MEL-5 melanoma, > 62.7 µM; in the assay on COLO 205 colon, 35.1 µM; with HT29 colon, 42.7 µM.
